Measured values as given in US6689813B2 (Biostatin Gyogyszerkutato-Fejleszto kft., priority 1998, dated 2004).
Where no end group is shown, it is not given here. [ ]: non-standard residue; d: D form.

Tested on: Wistar rats
Assay: Analgetic action: vegetative (pseudoaffective) reflex responses to mustard oil and capsaicin under urethane anaesthesia
Type: in vivo, rat
Parameters: Increase in heart rate: unit not given here
Settings: 10 μg/kg i.p.
Excerpt: This test is based on the synchronous registration of several components of so-called pseudoaffective reflex responses, which can be induced on animals by pain-producing stimuli [Lim, R. K. S.: J. Comp. Neurol 118, 269-294 (1962)] under urethane anaesthesia.
A significant blood pressure increase of 45 mmHg as an average pressor response, heart rate increase of 85 (as an average) and hyperpnoea (the number of respirations increases by 61 per minute as an average) can be observed in control animals on the effect of strong chemonociceptive stimuli (painting of the lower limbs with 1% mustard oil or dropping a capsaicin solution of 100 μg/ml concentration into the eye) under urethane anaesthesia.
The blood pressure, heart rate and respiration of intact Wistar rats (5 to 7 animals in each group, with a body weight of 250 to 350 g) were continuously registered for 40 minutes through an arterial cannula as well as double ramifying trachea cannula. Ten minutes before beginning the measurement, the pretreated animals received intraperitoneally 10 μg/kg of somatostatin (SS), octreotide or TT-232, respectively. Both lower limbs of the animals were painted with mustard oil in the 3rd minute and capsaicin solution was dropped into their eyes in the 23rd minute. The vegetative responses given on these nociceptive stimuli were evaluated by using a specific computer program.

## D-Phe-Cys-Tyr-D-Trp-Lys-Cys-Thr-NH2 ([dF]CY[dW]KCT-NH2; cysteine pairing not given here) [TT-232]
10 minutes before mustard oil
  protection against pseudoaffective reflex triad elicited by mustard oil and capsaicin (in words): practically complete protection
After dropping capsaicin solution into the eye, control 47.5
  Increase in respiration rate: 17.85 per minute
After dropping capsaicin solution into the eye, control 55
  Increase in mean arterial pressure: 13 mmHg
After dropping capsaicin solution into the eye, control 143
  Increase in heart rate: 22.88
After painting the feet by mustard oil, control 45.4
  Increase in mean arterial pressure: 4.86 mmHg
After painting the feet by mustard oil, control 60.75
  Increase in respiration rate: 12 per minute
After painting the feet by mustard oil, control 84.8
  Increase in heart rate: 13.71
